Data reported in the supplement of paper PMC10307832.

Compound: COc1cc(Nc2c(C#N)cnc3cc(OCCCN4CCN(C)CC4)c(OC)cc23)c(Cl)cc1Cl [Bosutinib] + CC(=O)c1c(C)c2cnc(Nc3ccc(N4CCNCC4)cn3)nc2n(C2CCCC2)c1=O [Palbociclib] (partner 0.5 µM)
Assay: relative viability (nuclei count vs DMSO), 5 days (fraction); higher = more cells survive
How it was run: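 Dosing by pin tool came one day after lung cancer cell lines were seeded in 1536-well plates, using either one drug or a fixed anchor-drug dose plus five library-drug doses (not always all listed) in √10 steps. After 5 days, nuclei were counted on 4× images. Relative viability is treated-well nuclei count divided by vehicle-well nuclei count, and values are medians of duplicate plates.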

Row | Cell Line | relative viability (first compound 0.01 µM) | relative viability (first compound 0.03162 µM) | relative viability (first compound 0.1 µM) | relative viability (first compound 1 µM)
1 | COR-L 105 | 0.401 | 0.385 | 0.443 | 0.412
2 | HCC-366 | 0.423 | 0.365 | 0.375 | 0.247
3 | HCC-44 | 0.985 | 0.967 | 0.964 | 0.865
4 | NCI-H2009 | 0.246 | 0.302 | 0.195 | 0.147
5 | NCI-H23 | 0.515 | 0.476 | 0.464 | 0.591
6 | NCI-H727 | 0.642 | 0.673 | 0.63 | 0.632
7 | NCI-H1355 | 0.415 | 0.396 | 0.386 | 0.372
8 | NCI-H1944 | 0.363 | 0.362 | 0.373 | 0.298
9 | NCI-H2023 | 0.373 | 0.368 | 0.387 | 0.297
10 | NCI-H1650 | 0.343 | 0.315 | 0.304 | 0.188
11 | NCI-H1395 | 0.595 | 0.539 | 0.643 | 0.48
12 | NCI-H2087 | 0.247 | 0.263 | 0.218 | 0.276
13 | NCI-H838 | 0.23 | 0.209 | 0.2 | 0.174
14 | NCI-H1793 | 0.272 | 0.311 | 0.326 | 0.266
15 | LC-2-ad | 0.498 | 0.507 | 0.522 | 0.478
16 | HCC-78 | 0.457 | 0.425 | 0.506 | 0.435
17 | NCI-H522 | 1.07 | 0.93 | 0.996 | 0.8
18 | LOU-NH91 | 0.529 | 0.541 | 0.541 | 0.563

Row | Cell Line | relative viability (first compound 0.01 µM) | relative viability (first compound 0.03162 µM) | relative viability (first compound 0.1 µM) | relative viability (first compound 1 µM)
19 | NCI-H1734 | 0.334 | 0.367 | 0.365 | 0.299
20 | NCI-H520 | 0.206 | 0.227 | 0.208 | 0.169
21 | UMC-11 | 0.366 | 0.344 | 0.33 | 0.279
22 | NCI-H1755 | 0.435 | 0.456 | 0.433 | 0.469
23 | SK-LU-1 | 0.399 | 0.436 | 0.397 | 0.294
24 | NCI-H647 | 0.528 | 0.394 | 0.452 | 0.299
25 | SW 1573 | 0.418 | 0.419 | 0.365 | 0.4
26 | HCC-15 | 0.763 | 0.71 | 0.699 | 0.63
27 | NCI-H2126 | 0.324 | 0.322 | 0.351 | 0.359
28 | NCI-H2085 | 0.465 | 0.442 | 0.469 | 0.517
29 | SW 900 | 0.524 | 0.525 | 0.5 | 0.352
30 | BEN | 0.449 | 0.444 | 0.493 | 0.447
31 | NCI-H650 | 0.398 | 0.325 | 0.332 | 0.406
32 | LCLC-103H | 0.497 | 0.498 | 0.452 | 0.491
33 | PC-14 | 0.566 | 0.482 | 0.32 | 0.0932
34 | NCI-H2228 | 0.955 | 0.943 | 0.955 | 0.859
35 | COR-L23 | 0.275 | 0.366 | 0.22 | 0.322
36 | NCI-H1915 | 0.521 | 0.513 | 0.544 | 0.56
